{"source": "patent US20230295197A1", "about": "“STAT5 and STAT6 Degraders and Uses Thereof” (REGENTS OF THE UNIVERSITY OF MICHICAN, priority 2022, published 2023)", "data": [{"target": "T1, STAT6 (Homo sapiens, UniProt P42226)", "T1 construct": "endogenous in cells; host or cells: MOLM-16, KU-812, SKNO1, MB231, L1236", "T1 sequence (P42226 1-847)": "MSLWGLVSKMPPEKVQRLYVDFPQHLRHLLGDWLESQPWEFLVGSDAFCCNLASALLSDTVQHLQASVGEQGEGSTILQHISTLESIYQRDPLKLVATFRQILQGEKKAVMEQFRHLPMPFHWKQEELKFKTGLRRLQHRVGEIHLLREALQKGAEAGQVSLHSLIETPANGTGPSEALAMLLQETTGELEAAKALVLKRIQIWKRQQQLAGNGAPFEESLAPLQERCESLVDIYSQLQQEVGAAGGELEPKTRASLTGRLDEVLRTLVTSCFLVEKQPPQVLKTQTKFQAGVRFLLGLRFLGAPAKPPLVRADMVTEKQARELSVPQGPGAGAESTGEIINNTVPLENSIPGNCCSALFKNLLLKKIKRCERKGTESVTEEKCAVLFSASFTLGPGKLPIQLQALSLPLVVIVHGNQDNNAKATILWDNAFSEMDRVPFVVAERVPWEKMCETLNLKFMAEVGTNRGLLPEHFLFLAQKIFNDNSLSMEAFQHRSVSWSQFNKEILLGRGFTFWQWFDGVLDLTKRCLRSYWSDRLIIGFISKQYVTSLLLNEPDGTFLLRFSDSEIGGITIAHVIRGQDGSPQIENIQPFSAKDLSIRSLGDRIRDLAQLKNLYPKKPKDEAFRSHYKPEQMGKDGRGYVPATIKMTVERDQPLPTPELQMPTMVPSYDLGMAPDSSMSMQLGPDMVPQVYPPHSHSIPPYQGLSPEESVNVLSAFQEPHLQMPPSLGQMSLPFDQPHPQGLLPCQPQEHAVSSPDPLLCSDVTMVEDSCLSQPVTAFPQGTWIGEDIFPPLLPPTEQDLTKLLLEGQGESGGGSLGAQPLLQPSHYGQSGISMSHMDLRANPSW", "assay": "Immunoblotting (Western blot) analysis of STAT6 degradation efficiency of degraders in treated cells", "type": "cell-based", "details": "L1236 cells, read-out: DC50 S6 L1236", "how_it_was_run": "(§1)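 Each data point uses roughly one million cells dosed as indicated; pellets are lysed on ice, freeze-thawed, and clarified. Reduced, denatured samples (95 °C, 5 min) run on SDS gels, then membranes receive rabbit mAbs to STAT5 or STAT6 plus mouse anti-GAPDH overnight, followed by dye-labelled secondaries for fluorescence imaging.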", "units": {"DC50": "µM"}, "values": [{"smiles": "Cc1ncsc1-c1ccc(CNC(=O)[C@@H]2C[C@@H](O)CN2C(=O)[C@@H](NC(=O)CCCCCNC(=O)CO[C@@H]2C[C@@H](C(=O)N(C)c3ccc(Br)cc3)N(C(=O)[C@@H](NC(=O)c3cc4cc(C(F)(F)P(=O)(O)O)ccc4s3)C(C)(C)C)C2)C(C)(C)C)cc1", "note": "[Compound 417, ((2-(((S)-1-((2S,4R)-2-((4-bromophenyl)(methyl)carbamoyl)-4-(2-((6-(((S)-1-((2S,4R)-4-hydroxy-2-((4-(4-methylthiazol-5-yl)benzyl)carbamoyl)pyrrolidin-1-yl)-3,3-dimethyl-1-oxobutan-2-yl)amino)-6-oxohexyl)amino)-2-oxoethoxy)pyrrolidin-1-yl)-3,3-dimethyl-1-oxobutan-2-yl)carbamoyl)benzo[b]thiophen-5-yl)difluoromethyl)phosphonic acid]", "DC50": "> 10"}, {"smiles": "Cc1ncsc1-c1ccc([C@H](C)NC(=O)[C@@H]2C[C@@H](O)CN2C(=O)[C@@H](NC(=O)CNC(=O)COc2ccc3c(c2)CN(C(=O)[C@@H](NC(=O)c2cc4cc(C(F)(F)P(=O)(O)O)ccc4s2)C(C)(C)C)[C@H](C(=O)N2CCO[C@H](c4ccccc4)C2)C3)C(C)(C)C)cc1", "note": "[Compound 461, (difluoro(2-(((S)-1-((S)-7-(2-((2-(((S)-1-((2S,4R)-4-hydroxy-2-(((S)-1-(4-(4-methylthiazol-5-yl)phenyl)ethyl)carbamoyl)pyrrolidin-1-yl)-3,3-dimethyl-1-oxobutan-2-yl)amino)-2-oxoethyl)amino)-2-oxoethoxy)-3-((R)-2-phenylmorpholine-4-carbonyl)-3,4-dihydroisoquinolin-2(1H)-yl)-3,3-dimethyl-1-oxobutan-2-yl)carbamoyl)benzo[b]thiophen-5-yl)methyl)phosphonic acid]", "DC50": "> 10"}]}, {"target": "T1, STAT6", "assay": "Immunoblotting (Western blot) analysis of STAT6 degradation efficiency of degraders in treated cells", "type": "cell-based", "details": "MB231 cells, read-out: DC50 S6 MB231", "how_it_was_run": "as §1", "units": {"DC50": "µM"}, "values": [{"smiles": "Cc1ncsc1-c1ccc(CNC(=O)[C@@H]2C[C@@H](O)CN2C(=O)[C@@H](NC(=O)CCCCCNC(=O)CO[C@@H]2C[C@@H](C(=O)N(C)c3ccc(Br)cc3)N(C(=O)[C@@H](NC(=O)c3cc4cc(C(F)(F)P(=O)(O)O)ccc4s3)C(C)(C)C)C2)C(C)(C)C)cc1", "note": "[Compound 417, ((2-(((S)-1-((2S,4R)-2-((4-bromophenyl)(methyl)carbamoyl)-4-(2-((6-(((S)-1-((2S,4R)-4-hydroxy-2-((4-(4-methylthiazol-5-yl)benzyl)carbamoyl)pyrrolidin-1-yl)-3,3-dimethyl-1-oxobutan-2-yl)amino)-6-oxohexyl)amino)-2-oxoethoxy)pyrrolidin-1-yl)-3,3-dimethyl-1-oxobutan-2-yl)carbamoyl)benzo[b]thiophen-5-yl)difluoromethyl)phosphonic acid]", "DC50": "> 10"}]}, {"target": "T1, STAT6", "assay": "Immunoblotting (Western blot) analysis of STAT6 degradation efficiency of degraders in treated cells", "type": "cell-based", "details": "MOLM-16 cells, class symbols, read-out: DC50 S6 MOLM-16", "how_it_was_run": "as §1", "units": {"DC50": "µM"}, "values": [{"smiles": "Cc1ncsc1-c1ccc([C@H](CC(=O)NCCOCCOCCOCCC(=O)N[C@H]2C[C@@H](C(=O)N3CCO[C@H](c4ccccc4)C3)N(C(=O)[C@@H](NC(=O)c3cc4cc(C(F)(F)P(=O)(O)O)ccc4s3)C(C)(C)C)C2)NC(=O)[C@@H]2C[C@@H](O)CN2C(=O)[C@@H](NC(=O)C2(F)CC2)C(C)(C)C)cc1", "note": "[Compound 573, (difluoro(2-(((S)-1-((2S,4S)-4-((S)-1-((2S,4R)-1-((S)-2-(1-fluorocyclopropane-1-carboxamido)-3,3-dimethylbutanoyl)-4-hydroxypyrrolidin-2-yl)-3-(4-(4-methylthiazol-5-yl)phenyl)-1,5-dioxo-9,12,15-trioxa-2,6-diazaoctadecan-18-amido)-2-((R)-2-phenylmorpholine-4-carbonyl)pyrrolidin-1-yl)-3,3-dimethyl-1-oxobutan-2-yl)carbamoyl)benzo[b]thiophen-5-yl)methyl)phosphonic acid]", "DC50": "> 10"}, {"smiles": "Cc1cc([C@H](C(=O)N2C[C@H](O)C[C@H]2C(=O)N[C@@H](CC(=O)NCCCCCCNC(=O)CO[C@@H]2C[C@@H](C(=O)N(C)c3ccc(Br)cc3)N(C(=O)[C@@H](NC(=O)c3cc4cc(C(F)(F)P(=O)(O)O)ccc4s3)C(C)(C)C)C2)c2ccc(-c3scnc3C)cc2)C(C)C)on1", "note": "[Compound 422, ((2-(((S)-1-((2S,4R)-2-((4-bromophenyl)(methyl)carbamoyl)-4-(2-((6-((S)-3-((2S,4R)-4-hydroxy-1-((R)-3-methyl-2-(3-methylisoxazol-5-yl)butanoyl)pyrrolidine-2-carboxamido)-3-(4-(4-methylthiazol-5-yl)phenyl)propanamido)hexyl)amino)-2-oxoethoxy)pyrrolidin-1-yl)-3,3-dimethyl-1-oxobutan-2-yl)carbamoyl)benzo[b]thiophen-5-yl)difluoromethyl)phosphonic acid]", "DC50": "> 10"}, {"smiles": "CC(C)(C)c1ccc(C[C@H](NC(=O)c2cc3cc(C(F)(F)P(=O)(O)O)ccc3s2)C(=O)N2C[C@@H](OCCCCCC(=O)N3Cc4cc5c(cc4C3)C(=O)N(C3CCC(=O)NC3=O)C5)C[C@H]2C(=O)N2CCO[C@H](c3ccccc3)C2)cc1", "note": "(stereo partly drawn) [Compound 591, ((2-(((2S)-3-(4-(tert-butyl)phenyl)-1-((2S,4S)-4-((6-(6-(2,6-dioxopiperidin-3-yl)-5-oxo-3,5,6,7-tetrahydropyrrolo[3,4-f]isoindol-2(1H)-yl)-6-oxohexyl)oxy)-2-((R)-2-phenylmorpholine-4-carbonyl)pyrrolidin-1-yl)-1-oxopropan-2-yl)carbamoyl)benzo[b]thiophen-5-yl)difluoromethyl)phosphonic acid]", "DC50": "> 10"}, {"smiles": "Cc1ncsc1-c1ccc([C@H](C)NC(=O)[C@@H]2C[C@@H](O)CN2C(=O)[C@@H](NC(=O)CNC(=O)COc2ccc3c(c2)CN(C(=O)[C@@H](NC(=O)c2cc4cc(C(F)(F)P(=O)(O)O)ccc4s2)C(C)(C)C)[C@H](C(=O)N2CCO[C@H](c4ccccc4)C2)C3)C(C)(C)C)cc1", "note": "[Compound 461, (difluoro(2-(((S)-1-((S)-7-(2-((2-(((S)-1-((2S,4R)-4-hydroxy-2-(((S)-1-(4-(4-methylthiazol-5-yl)phenyl)ethyl)carbamoyl)pyrrolidin-1-yl)-3,3-dimethyl-1-oxobutan-2-yl)amino)-2-oxoethyl)amino)-2-oxoethoxy)-3-((R)-2-phenylmorpholine-4-carbonyl)-3,4-dihydroisoquinolin-2(1H)-yl)-3,3-dimethyl-1-oxobutan-2-yl)carbamoyl)benzo[b]thiophen-5-yl)methyl)phosphonic acid]", "DC50": "> 10"}, {"smiles": "CC(C)(C)[C@H](NC(=O)c1cc2cc(C(F)(F)P(=O)(O)O)ccc2s1)C(=O)N1C[C@@H](OCC(=O)NCCCCCC#Cc2ccc3c(c2)C(=O)N(C2CCC(=O)NC2=O)C3=O)C[C@H]1C(=O)N1CCC[C@H](c2ccccc2)C1", "note": "(stereo partly drawn) [Compound 502, ((2-(((2S)-1-((2S,4S)-4-(2-((7-(2-(2,6-dioxopiperidin-3-yl)-1,3-dioxoisoindolin-5-yl)hept-6-yn-1-yl)amino)-2-oxoethoxy)-2-((R)-3-phenylpiperidine-1-carbonyl)pyrrolidin-1-yl)-3,3-dimethyl-1-oxobutan-2-yl)carbamoyl)benzo[b]thiophen-5-yl)difluoromethyl)phosphonic acid]", "DC50": "> 10"}, {"smiles": "CC(C)(C)[C@H](NC(=O)c1cc2cc(C(F)(F)P(=O)(O)O)ccc2s1)C(=O)N1Cc2cc(OCC(=O)NCCCCC#Cc3ccc4c(c3)C(=O)N(C3CCC(=O)NC3=O)C4=O)ccc2C[C@H]1C(=O)N1CCC[C@H](c2ccccc2)C1", "note": "(stereo partly drawn) [Compound 556, ((2-(((2S)-1-((3S)-7-(2-((6-(2-(2,6-dioxopiperidin-3-yl)-1,3-dioxoisoindolin-5-yl)hex-5-yn-1-yl)amino)-2-oxoethoxy)-3-((R)-3-phenylpiperidine-1-carbonyl)-3,4-dihydroisoquinolin-2(1H)-yl)-3,3-dimethyl-1-oxobutan-2-yl)carbamoyl)benzo[b]thiophen-5-yl)difluoromethyl)phosphonic acid]", "DC50": "> 10"}, {"smiles": "CC(C)(C)[C@H](NC(=O)c1cc2cc(C(F)(F)P(=O)(O)O)ccc2s1)C(=O)N1C[C@@H](OCC(=O)NCCCCCCCCC#Cc2cccc3c2C(=O)N(C2CCC(=O)NC2=O)C3=O)C[C@H]1C(=O)N1CCC[C@H](c2ccccc2)C1", "note": "(stereo partly drawn) [Compound 503, ((2-(((2S)-1-((2S,4S)-4-(2-((10-(2-(2,6-dioxopiperidin-3-yl)-1,3-dioxoisoindolin-4-yl)dec-9-yn-1-yl)amino)-2-oxoethoxy)-2-((R)-3-phenylpiperidine-1-carbonyl)pyrrolidin-1-yl)-3,3-dimethyl-1-oxobutan-2-yl)carbamoyl)benzo[b]thiophen-5-yl)difluoromethyl)phosphonic acid]", "DC50": "> 10"}, {"smiles": "CC(C)(C)[C@H](NC(=O)c1cc2cc(C(F)(F)P(=O)(O)O)ccc2s1)C(=O)N1CCN(C(=O)CC(=O)NCCCCCC#Cc2cccc3c2C(=O)N(C2CCC(=O)NC2=O)C3=O)C[C@H]1C(=O)N1CCO[C@H](c2ccccc2)C1", "note": "(stereo partly drawn) [Compound 515, ((2-(((2S)-1-((2S)-4-(3-((7-(2-(2,6-dioxopiperidin-3-yl)-1,3-dioxoisoindolin-4-yl)hept-6-yn-1-yl)amino)-3-oxopropanoyl)-2-((R)-2-phenylmorpholine-4-carbonyl)piperazin-1-yl)-3,3-dimethyl-1-oxobutan-2-yl)carbamoyl)benzo[b]thiophen-5-yl)difluoromethyl)phosphonic acid]", "DC50": "> 10"}, {"smiles": "CC(C)(C)[C@H](NC(=O)c1cc2cc(C(F)(F)P(=O)(O)O)ccc2s1)C(=O)N1C[C@@H](OCCCCCCC#Cc2cccc3c2CN(C2CCC(=O)NC2=O)C3=O)C[C@H]1C(=O)N1CCS(=O)(=O)C(c2ccccc2)C1", "note": "(stereo partly drawn) [Compound 607, ((2-(((2S)-1-((2S,4S)-2-(1,1-dioxido-2-phenylthiomorpholine-4-carbonyl)-4-((8-(2-(2,6-dioxopiperidin-3-yl)-1-oxoisoindolin-4-yl)oct-7-yn-1-yl)oxy)pyrrolidin-1-yl)-3,3-dimethyl-1-oxobutan-2-yl)carbamoyl)benzo[b]thiophen-5-yl)difluoromethyl)phosphonic acid]", "DC50": "< 0.1"}]}, {"target": "T1, STAT6", "assay": "Immunoblotting (Western blot) analysis of STAT6 degradation efficiency of degraders in treated cells", "type": "cell-based", "details": "MOLM-16 cells, numeric bound, read-out: DC50 S6 MOLM-16", "how_it_was_run": "as §1", "units": {"DC50": "µM"}, "values": [{"smiles": "CC(C)(C)[C@H](NC(=O)c1cc2cc(C(F)(F)P(=O)(O)O)ccc2s1)C(=O)N1C[C@@H](OCCN2CCC(C#Cc3cccc4c3CN(C3CCC(=O)NC3=O)C4=O)CC2)C[C@H]1C(=O)N1CCO[C@H](c2ccccc2)C1", "note": "(stereo partly drawn) [Compound 604, ((2-(((2S)-1-((2S,4S)-4-(2-(4-((2-(2,6-dioxopiperidin-3-yl)-1-oxoisoindolin-4-yl)ethynyl)piperidin-1-yl)ethoxy)-2-((R)-2-phenylmorpholine-4-carbonyl)pyrrolidin-1-yl)-3,3-dimethyl-1-oxobutan-2-yl)carbamoyl)benzo[b]thiophen-5-yl)difluoromethyl)phosphonic acid]", "DC50": "> 0.3"}]}]}
